Results published in publication PMC2789240, “Comparative structural, kinetic and inhibitor studies of Trypanosoma brucei trypanothione reductase with T. cruzi^” (Molecular and Biochemical Parasitology, 2010).
Where two headings read alike, the source gives them in different places.

Columns and labels:
[1] = biological target: T1, TcTryR (recombinant T. cruzi trypanothione reductase) (Trypanosoma cruzi, UniProt P28593); test: 412 nm DTNB-coupled trypanothione reductase assay (IC50, Km); assay type: biochemical; conditions: 412 nm assay, T(S)2 at S = Km (10.4 μM), weighted mean of three occasions
T1 construct: made in house
T1 sequence (P28593 whole entry): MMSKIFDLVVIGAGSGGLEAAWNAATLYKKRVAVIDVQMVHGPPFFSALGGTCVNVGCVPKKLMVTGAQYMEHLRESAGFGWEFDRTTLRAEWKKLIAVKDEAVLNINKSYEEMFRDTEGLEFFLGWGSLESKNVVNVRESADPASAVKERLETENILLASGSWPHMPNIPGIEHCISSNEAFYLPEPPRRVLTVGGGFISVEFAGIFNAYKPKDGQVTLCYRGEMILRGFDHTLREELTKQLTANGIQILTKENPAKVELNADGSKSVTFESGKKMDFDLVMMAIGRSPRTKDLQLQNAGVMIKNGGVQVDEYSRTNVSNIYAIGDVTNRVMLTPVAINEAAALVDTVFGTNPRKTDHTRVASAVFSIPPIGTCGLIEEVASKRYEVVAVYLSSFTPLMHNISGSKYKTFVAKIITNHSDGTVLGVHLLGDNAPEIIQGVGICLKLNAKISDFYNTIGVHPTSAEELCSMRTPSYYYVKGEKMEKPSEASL
Experimental: Assay plates were prepared using a Precision2000 liquid handler (Bio-Tek) with a final DMSO concentration of 1% in all wells. Plates contained a 10-point serial dilution (2-fold or 3-fold dilutions) across columns 2–11 with a top concentration of 100 μM or 200 μM. […] Column 1 contained full signal controls (no inhibitor) and column 12 contained background controls (no enzyme). […] Z′ figures were calculated from the full signal and background controls.

[2] = test system: TbTryR (recombinant T. b. brucei trypanothione reductase)
[3] = test system: Bloodstream form T. b. brucei cells (strain 427, 'single marker'); conditions: cited from earlier work
[4] = biological target: T2, TbTryR (recombinant T. b. brucei trypanothione reductase) (Trypanosoma brucei brucei, UniProt Q389T8); test: biochemical
T2 sequence (Q389T8 entry or part of it): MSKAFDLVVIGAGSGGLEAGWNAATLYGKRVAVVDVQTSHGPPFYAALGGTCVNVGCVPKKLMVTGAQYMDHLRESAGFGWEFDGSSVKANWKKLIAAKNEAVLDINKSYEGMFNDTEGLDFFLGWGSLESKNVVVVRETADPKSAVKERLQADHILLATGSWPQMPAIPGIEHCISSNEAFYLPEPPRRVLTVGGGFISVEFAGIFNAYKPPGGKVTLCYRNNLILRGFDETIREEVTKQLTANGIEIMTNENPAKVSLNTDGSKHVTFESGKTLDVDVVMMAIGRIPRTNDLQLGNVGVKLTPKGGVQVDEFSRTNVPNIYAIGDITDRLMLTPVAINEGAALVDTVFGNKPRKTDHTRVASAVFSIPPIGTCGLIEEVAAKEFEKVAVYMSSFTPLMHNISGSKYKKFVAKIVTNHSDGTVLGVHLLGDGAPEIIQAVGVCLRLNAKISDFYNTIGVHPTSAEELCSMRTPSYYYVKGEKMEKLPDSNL

[5] = test system: Bloodstream form T. b. brucei cells (strain 427, 'single marker'); test: Growth inhibition of bloodstream form T. b. brucei (resazurin); assay type: cell-based; conditions: Trypanosoma brucei, 72 h, 3 days incubation, weighted mean of three experiments
Experimental: Bloodstream form T. b. brucei cells (strain 427, ‘single marker’) were grown at 37 °C and 5% CO2 in a modified HMI9 [21] (HMI9-T where 0.2 mM 2-mercaptoethanol was replaced with 0.056 mM thioglycerol). Stock cultures were maintained in T75 vented cap culture flasks (Greiner, Kremsmuenster, Austria) and sub-cultured every 48–72 h by dilution into fresh medium. For microtitre plate assays, cells were counted using a Casy cell counter TT (Schärfe systems) and diluted appropriately. Compounds were tested in 96-well test plates (Greiner). The final conditions were 50–0.07 μM test compound (9-point 3-fold serial dilutions), 0.5% DMSO, 10^3 ml^−1 cells in a total volume of 0.2 ml. Plates were incubated for 3 days, resazurin was added to a final concentration of 45 μM and plates incubated for a further 4 h. Fluorescence was measured at 528 nm excitation and 590 nm emission. EC50 values were determined in three separate experiments and the data reported as weighted means.

African trypanosomiasis [6] = test system: African trypanosomiasis; design: method as in PMID 3503414; conditions: 50 mg kg^-1, i.p.; cited from earlier work
TbTryR = TbTryR (Trypanosoma brucei brucei, UniProt Q389T8); test: Modified 412 nm DTNB-coupled assay with NADPH regeneration by glucose-6-phosphate dehydrogenase; assay type: biochemical; conditions: NADPH-regenerating system, 6 μM T(S)2
TbTryR, sequence (Q389T8 entry or part of it): as above
Experimental: In order to determine Km with respect to NADPH using the 412 nm DTNB assay, NADPH levels were maintained constant using glucose-6-phosphate and glucose-6-phosphate dehydrogenase from Saccharomyces cerevisiae. […] The final assay mixture contained 40 mM HEPES pH 7.4, 1 mM EDTA, ∼10 mU ml^−1 TryR, 6 μM T(S)2, 50 μM DTNB and 0.2–200 μM NADPH (7-point 3-fold serial dilution). Assays were initiated by addition of the NADPH. Km values with respect to NADPH were determined for TbTryR in three independent experiments and a weighted mean calculated.

[7] = test system: L. donovani trypanothione reductase; design: method as in PMID 7607216; conditions: read-out: Km T(S)2 (by NADPH oxidation); cited from earlier work
African trypanosomiasis [8] = test system: African trypanosomiasis; design: method as in Halliburton and Fairlamb, unpublished; conditions: 50 mg kg^-1, i.p., acute mouse model; ref Halliburton and Fairlamb, unpublished; cited from earlier work
[9] = biological target: T2, TbTryR (recombinant T. b. brucei trypanothione reductase); conditions: 150 μM NADH as electron donor, 412 nm assay
[10] = ratio of IC50 values at respective S = Km

SMILES | IC50 [1] | Ratio Tc/Tb (IC50 TcTryR / IC50 TbTryR) [2, 10] | EC50 ([3]; ref Martyn et al. [19]) | IC50 [4] | also measured
CN(C)CCC(=O)c1cccc([N+](=O)[O-])c1 [DM6a] | 3.8 ± 0.2 µM | 1.2 | 0.68 ± 0.1 µM | 3.2 ± 0.16 µM | –
CN(C)CCCC1(c2ccc(F)cc2)OCc2cc(C#N)ccc21 (centres unmarked) [Citalopram] | 154 ± 5.42 µM | 1.9 | – | 82.3 ± 6.35 µM | EC50 [5]: 6.59 ± 0.54 µM
CSc1ccc2c(c1)N(CCC1CCCCN1C)c1ccccc1S2 (centres unmarked) [Thioridazine] | – | – | – | – | activity in the chronic mouse model of African trypanosomiasis (African trypanosomiasis [6]): inactive
CC(C)(C)c1cc(CN(CCO)CCO)cc(C(C)(C)C)c1O [DM7a] | 27.8 ± 2.08 µM | 1.4 | 3.01 ± 0.3 µM | 19.2 ± 1.75 µM | –
CCN(CC)CCCC(C)Nc1c2ccc(Cl)cc2nc2ccc(OC)cc12 (centres unmarked) [Quinacrine] | 37.8 ± 1.91 µM | – | – | 22.1 ± 2.05 µM | Ratio Tc/Tb (IC50 TcTryR / IC50 TbTryR) [2]: 1.7
O=c1c2ccccc2[se]n1-c1ccccc1 [Ebselen] | 0.6 ± 0.01 µM | 3.3 | – | 0.18 ± 0.01 µM | EC50 ([3]; ref Richardson et al. [33]): 2.97 µM
NC(=O)C1=CN([C@@H]2O[C@H](COP(=O)(O)OP(=O)(O)OC[C@H]3O[C@@H](n4cnc5c(N)ncnc54)[C@H](OP(=O)(O)O)[C@@H]3O)[C@@H](O)[C@H]2O)C=CC1 [NADPH] | – | – | – | – | Km (TbTryR): 0.77 ± 0.01 µM
CN1CCN(CCCN2c3ccccc3Sc3ccc(C(F)(F)F)cc32)CC1 [Trifluoperazine] | 20.9 ± 0.9 µM | – | – | – | EC50 [5]: 2.11 ± 0.5 µM; activity in the chronic mouse model of African trypanosomiasis (African trypanosomiasis [6]): inactive
CN(C)CCC(=O)c1ccc(S(C)(=O)=O)cc1 [DM5a] | 16.9 ± 1.08 µM | 2.5 | 0.55 ± 0.04 µM | 6.8 ± 0.42 µM | –
N[C@@H](CCC(=O)N[C@H]1CSSC[C@H](NC(=O)CC[C@H](N)C(=O)O)C(=O)NCC(=O)NCCCNCCCCNC(=O)CNC1=O)C(=O)O [T(S)2, trypanothione disulphide] | – | – | – | – | Km [7]: 36 µM
CN(C)CCCN1c2ccccc2CCc2ccc(Cl)cc21 [Clomipramine] | – | – | – | – | extension of survival time (African trypanosomiasis [8]): failed to extend survival time by even one day
CN(C)CCC(=O)c1ccc(Cl)c(Cl)c1 [DM8a] | 7.99 ± 0.51 µM | – | 1 ± 0.21 µM | 3.17 ± 0.17 µM | Ratio Tc/Tb (IC50 TcTryR / IC50 TbTryR) [2]: 2.5
NC(=O)C1=CN([C@@H]2O[C@H](COP(=O)(O)OP(=O)(O)OC[C@H]3O[C@@H](n4cnc5c(N)ncnc54)[C@H](O)[C@@H]3O)[C@@H](O)[C@H]2O)C=CC1 [NADH] | – | – | – | – | Activity relative to that obtained with 150 μM NADPH [9]: 5.7%
